{"source": "patent US7517960B2", "about": "“Rat KCNQ5 voltage-gated potassium channel” (Wyeth, priority 2006, dated 2009)", "key": {"[1]": {"system": "rat KCNQ5", "assay": "Two-electrode voltage clamp recording of rat KCNQ5 expressed in Xenopus laevis oocytes", "assay_type": "cell-based", "details": "homomeric rKCNQ5, cRNA-injected Xenopus laevis oocytes, recorded 48-72 hours after injection, FIG. 1B", "description": "The electrodes were filled with 3 M KCl solution with resistances ranging from 0.5 to 1.5 MΩ.\nFor Examples 4 and 5, the cRNAs of rKONQ5 were injected directly into Xenopus laevis oocytes and the electrophysiological recordings were performed 48-72 hours after RNA injection using two-electrode voltage clamp recording (see Jow F and Wang K-W, Mol. Brain Res. 80:269-78 (2000) for methods). The electrodes were filled with 3 M KCI solution with resistances ranging from 0.5 to 1.5 MΩ. The bath solution pf pH 7.4 was a “ND96” containing the following (in mM): NaCI, 96; KCl, 2; CaCl21.8; MgCl2 1; HEPES, 10 (see FIG. 1A)."}, "[2]": {"system": "rat KCNQ5/KCNQ3 heteromeric channels", "assay": "Two-electrode voltage clamp recording of rKCNQ5 co-expressed with KCNQ3 in Xenopus laevis oocytes", "assay_type": "cell-based", "details": "FIG. 2D", "source_text": "There is a significant increase in the current amplitude of the rat KCNQ5/KCNQ3 heteromeric channels compared with that of the rKCNQ5 or rat KCNQ3 homomeric channels. The homomeric channels here refer to those with only one type of channel subunits expressed in Xenopus laevis oocytes. In this case, it refers to either rKCNQ5 alone (FIG. 2A) or rat KCNQ3 alone (FIG. 2B). Heteromeric channels means that the functional channels are composed of subunits of both rKCNQ5 and rat KCNQ3 (FIG. 2C). It is believed that those functional channels are composed of 4 such subunits. Therefore, the functional channels are “tetramers”. If the 4 subunits are the same type (e.g. 4 rKCNQ5 subunits, or 4 rat KCNQ3 subunits), there are known as “homotetramers”. If the 4 subunits in these functional channels are different (e.g., 2 rKCNQ5+2 rat KCNQ3, or 3 rat KCNQ5+1 rat KCNQ3, etc.), they are known as “heterotetramers”.\nFor Examples 4 and 5, the cRNAs of rKONQ5 were injected directly into Xenopus laevis oocytes and the electrophysiological recordings were performed 48-72 hours after RNA injection using two-electrode voltage clamp recording (see Jow F and Wang K-W, Mol. Brain Res. 80:269-78 (2000) for methods). The electrodes were filled with 3 M KCI solution with resistances ranging from 0.5 to 1.5 MΩ. […]"}}, "data": [{"smiles": "O=C1c2ccccc2C(Cc2ccncc2)(Cc2ccncc2)c2ccccc21", "note": "[XE991]", "values": [{"measurement": "KCNQ5 channel current amplitude", "setting": "[1]", "result": "decreased the current amplitude"}, {"measurement": "current amplitudes of heterotetramer channels", "setting": "[2]", "result": "decrease"}]}]}
